Assay results reported in US11479563B2, “Biphenyl compound or salt thereof” (TAIHO PHARMACEUTICAL CO., LTD., priority 2017, dated 2022).

What was measured:
[1] = test system: HEL cells (human acute myelocytic leukemia cell lines); experiment: cells; settings: read-out: Cell-Growth Inhibition Test: HEL Cells IC50 (nM);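 note: viable cell count by CellTiter-Glo 2.0 luminescence after 5 days of culture at 37 °C, growth expressed relative to DMSO-only wells as 100%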
[2] = test system: NCI-H1417 cells (human small-cell lung cancer cell lines); experiment: cells; settings: NCI-H1417, read-out: Cell-Growth Inhibition Test: NCI-H1417 Cells IC50 (nM);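 note: growth of NCI-H1417 cells over 10 days at 37 °C, read as viable-cell luminescence by CellTiter-Glo 2.0, expressed as % of DMSO-only control wells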
[3] = test system: NCI-H146 cells (human small-cell lung cancer cell lines); experiment: Cell-growth inhibition test: NCI-H146 cells; type: cell-based; settings: Homo sapiens, NCI-H146, read-out: Cell-Growth Inhibition Test: NCI-H146 Cells IC50 (nM)
Method: Under the following conditions, an in vitro cell-growth inhibition test was performed with respect to HEL cells (human acute myelocytic leukemia cell lines), NCI-H1417 cells (human small-cell lung cancer cell lines), and NCI-H146 cells (human small-cell lung cancer cell lines).
The cells with the compound of the present invention or with dimethylsulfoxide alone were cultured at 37° C. in a 5% carbon-dioxide-containing incubator for 5 days (HEL cells) or 10 days (NCI-H1417 cells and NCI-H146 cells). After culture, the plate was allowed to stand at room temperature for 30 minutes, and 100 μL of the supernatant was removed from each well to leave 100 μL of the cell culture solution. To each well containing the remaining 100 μL of the cell culture solution, the same amount of CellTiter-Glo 2.0 Assay (Promega, Cat #: G9242) was added. The microplate was shaken with a plate mixer for 1 minute and then allowed to stand in a dark place for 10 minutes. Thereafter, the luminescence intensity of viable cells in each well was measured using a microplate reader (PerkinElmer, EnSpire). […] Cell growth rate (%)=T/C×100 T: The luminescence intensity in a well to which the compound of the present invention was added (count per second) C: The luminescence intensity in a well to which dimethylsulfoxide alone was added (count per second)

Compound	IC50 [1] [nM]	IC50 [2] [nM]	IC50 [3] [nM]
Cc1ccc(-c2ccc(C(=O)N3[C@@H]4CC[C@H]3C[C@H](N)C4)cc2-c2ccc(C#N)cc2)cc1 [Example 7]	14.8	28	
Cc1ccc(-c2ccc(C(=O)N3[C@@H]4CC[C@H]3C[C@@H](N)C4)cc2-c2ccc(C#N)c(F)c2)c(F)c1 [Example 21]	8.34	32.6	
COCCc1ccc(-c2ccc(C(=O)N3[C@@H]4CC[C@H]3C[C@H](N)C4)cc2-c2ccc(C#N)c(F)c2)c(F)c1 [Example 26]	4.83	3.15	
CC(C)(O)Cc1ccc(-c2ccc(C(=O)N3[C@@H]4CC[C@H]3C[C@H](N)C4)cc2-c2ccc(C#N)c(F)c2)c(F)c1 [Example 28]		4.4	
N#Cc1ccc(-c2cc(C(=O)N3[C@@H]4CC[C@H]3C[C@H](N)C4)ccc2-c2ccc3ccccc3c2)cc1F [Example 104]	28.8	49.8	
N#Cc1ccc(-c2cc(C(=O)N3[C@@H]4CC[C@H]3C[C@H](N)C4)ccc2-c2ccc3cccnc3c2F)cc1F [Example 105]		11.7	
CN1CCOc2cc(-c3ccc(C(=O)N4[C@@H]5CC[C@H]4C[C@H](N)C5)cc3-c3ccc(C#N)c(F)c3)ccc21 [Example 106]	5.74	6.15	
N#Cc1ccc(-c2cc(C(=O)N3[C@@H]4CC[C@H]3C[C@H](N)C4)ccc2-c2ccc3cccnc3c2)cc1F [Example 107]		18.2	
Cn1cnc2cc(-c3ccc(C(=O)N4[C@@H]5CC[C@H]4C[C@H](N)C5)cc3-c3ccc(C#N)c(F)c3)c(F)cc21 [Example 108]	36.4	3.99	
Cn1nnc2cc(-c3ccc(C(=O)N4[C@@H]5CC[C@H]4C[C@H](N)C5)cc3-c3ccc(C#N)c(F)c3)c(F)cc21 [Example 109]	15.1	1.81	
Cn1ncc2c(F)c(-c3ccc(C(=O)N4[C@@H]5CC[C@H]4C[C@H](N)C5)cc3-c3ccc(C#N)c(F)c3)ccc21 [Example 110]	7.41	3.54	
COCCc1ccc(-c2ccc(C(=O)N3[C@@H]4CC[C@H]3C[C@H](NC(C)C)C4)cc2-c2ccc(C#N)c(F)c2)c(F)c1 [Example 112]		20.5	
CC(C)N[C@@H]1C[C@H]2CC[C@@H](C1)N2C(=O)c1ccc(-c2ccc(CC(C)(C)O)cc2F)c(-c2ccc(C#N)c(F)c2)c1 [Example 113]	9	13.7	
Cn1ncc2cc(-c3ccc(C(=O)N4[C@@H]5CC[C@H]4C[C@@H](N)C5)cc3-c3ccc(C#N)c(F)c3)c(F)cc21 [Example 124]	2.84	9.02	
Cn1nnc2cc(-c3ccc(C(=O)N4[C@@H]5CC[C@H]4C[C@@H](N)C5)cc3-c3ccc(C#N)c(F)c3)c(F)cc21 [Example 125]	7.57	8.43	
Cn1cnc2cc(-c3ccc(C(=O)N4[C@@H]5CC[C@H]4C[C@@H](N)C5)cc3-c3ccc(C#N)c(F)c3)c(F)c(F)c21 [Example 126]	5.39	5.02	
CN1CCOc2cc(-c3ccc(C(=O)N4[C@@H]5CC[C@H]4C[C@@H](N)C5)cc3-c3ccc(C#N)c(F)c3)ccc21 [Example 128]	5.7		
Cn1cnc2cc(-c3ccc(C(=O)N4[C@@H]5CC[C@H]4C[C@@H](N)C5)cc3-c3ccc(C#N)c(F)c3)c(F)cc21 [Example 130]	22.2	8.25	
CN(C)c1ccc(-c2ccc(C(=O)N3[C@@H]4CC[C@H]3C[C@@H](N)C4)cc2-c2ccc(C#N)c(F)c2)cn1 [Example 131]	15.2	30.9	

Compound	IC50 [1] [nM]	IC50 [2] [nM]	IC50 [3] [nM]
Cn1c(=O)sc2cc(-c3ccc(C(=O)N4[C@@H]5CC[C@H]4C[C@@H](N)C5)cc3-c3ccc(C#N)c(F)c3)ccc21 [Example 133]	17.7	17.9	
CC(C)(O)Cn1ccc2cc(-c3ccc(C(=O)N4[C@@H]5CC[C@H]4C[C@@H](N)C5)cc3-c3ccc(C#N)c(F)c3)c(F)cc21 [Example 136]	0.9	2.39	
CC(C)(C)n1nnc2cc(-c3ccc(C(=O)N4[C@@H]5CC[C@H]4C[C@@H](N)C5)cc3-c3ccc(C#N)c(F)c3)c(F)cc21 [Example 139]	16.9		
CC(C)(O)Cn1ncc2cc(-c3ccc(C(=O)N4[C@@H]5CC[C@H]4C[C@@H](N)C5)cc3-c3ccc(C#N)c(F)c3)c(F)cc21 [Example 142]	3.86	3.79	
Cc1ccc(-c2ccc(C(=O)N3[C@@H]4CC[C@H]3C[C@@H](N)C4)cc2-c2ccc(C#N)c(F)c2)c(F)c1F [Example 144]	6.37		
Cn1nnc2cc(-c3ccc(C(=O)N4[C@@H]5CC[C@H]4C[C@@H](N)C5)cc3-c3ccc(C#N)c(F)c3)c(F)c(F)c21 [Example 145]	1.61	3.29	
CCn1nnc2cc(-c3ccc(C(=O)N4[C@@H]5CC[C@H]4C[C@@H](N)C5)cc3-c3ccc(C#N)c(F)c3)c(F)cc21 [Example 160]	7.03	9.2	
CC(C)(O)Cn1nnc2cc(-c3ccc(C(=O)N4CC[C@H](N)C4)cc3-c3ccc(C#N)c(F)c3)c(F)c(F)c21 [Example 162]	17.7	4.69	
CCCn1nnc2cc(-c3ccc(C(=O)N4[C@@H]5CC[C@H]4C[C@@H](N)C5)cc3-c3ccc(C#N)c(F)c3)c(F)cc21 [Example 168]	5.29	7.29	
CC(C)(O)Cn1ccc2cc(-c3ccc(C(=O)N4C5CCC4C(N)C5)cc3-c3ccc(C#N)c(F)c3)c(F)cc21 (centres unmarked) [Example 171]	0.09		
Cn1nnc2cc(-c3ccc(C(=O)N4C5CCC4C(N)C5)cc3-c3ccc(C#N)c(F)c3)c(F)c(F)c21 (centres unmarked) [Example 175]	0.2		
CC(C)(O)Cn1ncc2cc(-c3ccc(C(=O)N4C5CCC4C(N)C5)cc3-c3ccc(C#N)c(F)c3)c(F)cc21 (centres unmarked) [Example 176]	0.2		
CC(C)(O)Cn1nc(Br)c2cc(-c3ccc(C(=O)N4[C@@H]5CC[C@H]4C[C@@H](N)C5)cc3-c3ccc(C#N)c(F)c3)c(F)cc21 [Example 178, 5′-((3-endo)-3-amino-8-azabicyclo[3.2.1]octane-8-carbonyl)-2′-(3-bromo-6-fluoro-1-(2-hydroxy-2-methylpropyl)-1H-indazol-5-yl)-3-fluoro-[1,1′-biphenyl]-4-carbonitrile]	3.57	3.03	
CC(C)(O)Cn1cc(C(=O)O)c2cc(-c3ccc(C(=O)N4C5CCC4C(N)C5)cc3-c3ccc(C#N)c(F)c3)c(F)cc21 [Example 222, 5-(5-((1S,2S,4R)-rel-2-amino-7-azabicyclo[2.2.1]heptane-7-carbonyl)-4′-cyano-3′-fluoro-[1,1′-biphenyl]-2-yl)-6-fluoro-1-(2-hydroxy-2-methylpropyl)-1H-indole-3-carboxylic acid-isomer-X]	38	41.8	
Cn1cc(C(=O)O)c2cc(-c3ccc(C(=O)N4C5CCC4C(N)C5)cc3-c3ccc(C#N)c(F)c3)c(F)cc21 [Example 224, 5-(5-((1S,2S,4R)-rel-2-amino-7-azabicyclo[2.2.1]heptane-7-carbonyl)-4′-cyano-3′-fluoro-[1,1′-biphenyl]-2-yl)-6-fluoro-1-methyl-1H-indole-3-carboxylic acid-isomer-X]	46.2		
CC(C)(O)Cn1nnc2cc(-c3ccc(C(=O)N4C5CCC4C(N)C5)cc3-c3ccc(C#N)c(F)c3)c(F)c(C(F)F)c21 [Example 246, 5′-((1S,2S,4R)-rel-2-amino-7-azabicyclo[2.2.1]heptane-7-carbonyl)-2′-(7-(difluoromethyl)-6-fluoro-1-(2-hydroxy-2-methylpropyl)-1H-benzo[d][1,2,3]triazol-5-yl)-3-fluoro-[1,1′-biphenyl]-4-carbonitrile-isomer-X]	0.37	0.81	
N#Cc1ccc(-c2cc(C(=O)N3C4CCC3C(N)C4)ccc2-c2cc3nnn(CC4(O)CCC4)c3c(Cl)c2F)cc1F [Example 257, 5′-((1S,2S,4R)-rel-2-amino-7-azabicyclo[2.2.1]heptane-7-carbonyl)-2′-(7-chloro-6-fluoro-1-((1-hydroxycyclobutyl)methyl)-1H-benzo[d][1,2,3]triazol-5-yl)-3-fluoro-[1,1′-biphenyl]-4-carbonitrile-isomer-X]	0.13		0.39
N#Cc1ccc(-c2cc(C(=O)N3[C@@H]4CC[C@H]3C[C@@H](N)C4)ccc2-c2cc3nnn(CC4(O)CCC4)c3c(C(F)F)c2F)cc1F [Example 262, 5′-((3-endo)-3-amino-8-azabicyclo[3.2.1]octane-8-carbonyl)-2′-(7-(difluoromethyl)-6-fluoro-1-((1-hydroxycyclobutyl)methyl)-1H-benzo[d][1,2,3]triazol-5-yl)-3-fluoro-[1,1′-biphenyl]-4-carbonitrile]	0.93		3.1
CC(C)(O)Cn1nnc2cc(-c3ccc(C(=O)N4C5CCC4C(N)C5)cc3-c3ccc(C#N)c(F)c3)c(F)c(C3CC3)c21 [Example 279, 5′-((1R,2R,4S)-rel-2-amino-7-azabicyclo[2.2.1]heptane-7-carbonyl)-2′-(7-cyclopropyl-6-fluoro-1-(2-hydroxy-2-methylpropyl)-1H-benzo[d][1,2,3]triazol-5-yl)-3-fluoro-[1,1′-biphenyl]-4-carbonitrile-isomer-X]	1.59	0.9	
